In PubChem BioAssay AID434987 (Southern Research Specialized Biocontainment Screening …, 2010):
Active and inactive are the calls of the source. The rule behind the calls is not given here.

Test system: M. tuberculosis H37Rv growth inhibition with meropenem
Assay: dose response, H37Rv, with and without meropenem (AID 434987);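 note: growth over 7 days at 37 °C before Alamar Blue read on day 9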
[1] = M. tuberculosis H37Rv growth inhibition, measured here: IC50 without meropenem
[2] = M. tuberculosis H37Rv growth inhibition, measured here: IC90 without meropenem
[3] = measured here: IC90 with meropenem

Row | SMILES | IC50 | IC50 [1] | IC90 [2] | IC90 [3]
1 | COc1ccc(CN(CCC#N)C(=S)NC(=O)c2ccccc2)cc1 | 10.6 µM | 79.1 µM | > 100 µM | > 100 µM
2 | O=C(OCn1nnc2ccccc2c1=O)c1ccc2c(=O)n3c(nc2c1)CCC3 | 18 µM (inactive) | 35.4 µM | > 100 µM | 26.1 µM
3 | CC(C)c1ccc(S(=O)(=O)N2CCN(C(C)C(=O)NC3CCCC3)CC2)cc1 (configuration not stated) | > 100 µM (inactive) | > 100 µM | > 100 µM | > 100 µM
4 | O=C(OC(C(=O)Nc1ccc(Cl)cc1C(F)(F)F)c1ccccc1)C1=COCCO1 (configuration not stated) | 1.23 µM | > 100 µM | > 100 µM | > 100 µM
5 | CN(C)S(=O)(=O)Oc1ccsc1C(=O)Nc1ccc(C(F)(F)F)cc1 | > 100 µM (inactive) | > 100 µM | > 100 µM | > 100 µM
6 | CCCCn1nc2cc(C(=O)NCC34CC5CC(CC(C5)C3)C4)ccc2c1OCC | 55.5 µM (inactive) | > 100 µM | > 100 µM | > 100 µM
7 | Cc1cccc(Cn2c(N3CCN(c4ccccc4)CC3)nc3c2c(=O)n(C)c(=O)n3C)c1 | > 100 µM (inactive) | > 100 µM | > 100 µM | > 100 µM
8 | COc1ccc([N+](=O)[O-])cc1C1NN=C(c2ccccc2O)S1 (configuration not stated) | > 100 µM (inactive) | > 100 µM | > 100 µM | > 100 µM
9 | COC(=O)c1c(C(=O)OC)c(C)n(Cc2ccco2)c1C | 64.4 µM (inactive) | > 100 µM | > 100 µM | > 100 µM
10 | CN(c1ccc(OCC(=O)OCC(=O)c2c(N)n(C)c(=O)n(C)c2=O)cc1)S(=O)(=O)c1ccc2ccccc2c1 | 26.2 µM | > 100 µM | > 100 µM | > 100 µM
11 | O=C(Cc1cccc2ccccc12)N/N=C/c1ccc(O)c([N+](=O)[O-])c1 | 17.3 µM (inactive) | 27.2 µM | 47.2 µM | 31.6 µM
12 | CCOC(=O)c1sc(NC(=O)Nc2ccc(Cl)cc2)cc1C | > 100 µM (inactive) | > 100 µM | > 100 µM | > 100 µM
13 | O=C(NN=C1CCCC1)c1cccs1 | 23.6 µM (inactive) | 50.3 µM | > 100 µM | > 100 µM
14 | Cc1cc(C)c2oc(-c3ccc(Cl)c(NC(=O)c4ccc(C#N)cc4F)c3)nc2c1 | > 100 µM (inactive) | > 100 µM | > 100 µM | > 100 µM
15 | COc1ccc(-c2c(-c3ccsc3)oc3ccc(N4CCOCC4)cc23)cc1 | > 100 µM (inactive) | > 100 µM | > 100 µM | > 100 µM
16 | c1ccc(-c2oc3ncnc(NCCN4CCOCC4)c3c2-c2ccccc2)cc1 | > 100 µM (inactive) | > 100 µM | > 100 µM | > 100 µM
17 | COc1cc(C(=O)Oc2ccccc2/C=N/NC(=O)c2ccc(C)c(Cl)c2)cc(OC)c1OC | 1.96 µM | > 100 µM | > 100 µM | > 3.13 µM
18 | CCCc1nc2oc3c(OCC)ncnc3c2c2c1COC(C)(C)C2 | 72.5 µM (inactive) | > 100 µM | > 100 µM | > 100 µM
19 | Cc1cccnc1NC(=S)NC(=O)c1cncc(Br)c1 | 4.68 µM | 40.3 µM | > 100 µM | > 100 µM
20 | O=C(CN1CCN(S(=O)(=O)c2ccc(F)cc2)CC1)Nc1ccc2c(c1)OCCO2 | 19.1 µM | 88.2 µM | > 100 µM | > 100 µM

Row | SMILES | IC50 | IC50 [1] | IC90 [2] | IC90 [3]
21 | CNC(=S)N/N=C(\C)c1ccc(Cl)c(Cl)c1 | > 100 µM (inactive) | > 100 µM | > 100 µM | > 100 µM
22 | O=C1C2ON(c3ccc(Br)cc3)C(c3cccnc3)C2C(=O)N1C1CCCCC1 (configuration not stated) | > 100 µM (inactive) | > 100 µM | > 100 µM | > 100 µM
23 | Cc1ccc(CN2C(=O)N/C(=C\c3ccc(-c4ccc(C(=O)O)cc4C)o3)C2=O)cc1 | 5.14 µM | 23.8 µM | > 100 µM | 14.7 µM
24 | CN(C)CCCN(C(=O)/C=C/c1cccs1)c1nc2ccc(F)cc2s1 | 45.2 µM (inactive) | 45.8 µM | 49.2 µM | 48.4 µM
25 | CCOCC(=O)Nc1ccc(F)c(F)c1 | 81.2 µM (inactive) | 94.5 µM | > 100 µM | > 100 µM
26 | Cc1cc2c(N=NC(=O)C3CC3c3ccccc3)c(O)[nH]c2cc1Br (configuration not stated) | > 100 µM (inactive) | > 100 µM | > 100 µM | > 100 µM
27 | Cc1ccccc1CSc1nnc(C)c(=O)n1N | 19.5 µM (inactive) | 45.4 µM | > 100 µM | 32.3 µM
28 | CC(C)C[C@H](NC(=O)c1nc[nH]c1C(=O)N1CCN(C(=O)OC(C)(C)C)CC1)C(=O)OCc1ccccc1 | 48.8 µM (inactive) | 49.4 µM | 56.1 µM | 54.9 µM
29 | O=c1c(N=Nc2ccc(O)cc2)c(-c2ccccc2)[nH]n1-c1ccc([N+](=O)[O-])cc1 | > 100 µM (inactive) | > 100 µM | > 100 µM | > 100 µM
30 | COC(=O)c1c(CSc2cccc(C)c2)noc1C(=O)NCc1ccco1 | > 100 µM (inactive) | > 100 µM | > 100 µM | > 100 µM
31 | CN(NC(=O)c1c(Cl)cccc1Cl)c1cccc(Cl)n1 | 7.34 µM | 62.3 µM | > 100 µM | > 100 µM
32 | Cc1[nH]c2c(C)cccc2c1CCNC(=O)c1ccc2c(c1[N+](=O)[O-])C(=O)c1ccccc1C2=O | > 100 µM (inactive) | > 100 µM | > 100 µM | > 100 µM
33 | CCOC(=O)C(=CNc1ccc2c(c1)c1ccccc1n2CC)C(=O)OCC | 15.2 µM | > 100 µM | > 100 µM | > 25 µM
34 | O=C1CS/C(=N/N=C2C3CC4CC(C3)CC2C4)N1 | 11.7 µM (inactive) | 23.5 µM | 32.5 µM | 13.8 µM
35 | O=C(COc1cccc2cccnc12)N/N=C/c1ccc(O)cc1 | 27 µM | > 100 µM | > 100 µM | > 50 µM
36 | CONC(=O)c1cc(OCC(F)(F)F)ccc1OCC(F)(F)F | > 100 µM (inactive) | > 100 µM | > 100 µM | > 100 µM
37 | O=C(CNC(=O)c1ccc(Br)cc1)NCC(=O)OCc1ccc(Cl)cc1 | 12.4 µM | 56.9 µM | > 100 µM | > 100 µM
38 | CCN(CC)c1ccc(CN2CCCCCC2)cc1 | 43.6 µM (inactive) | 48.1 µM | > 100 µM | 49.4 µM
39 | Clc1ccc(CSc2ccc(-c3cccnc3)nn2)cc1 | 40.1 µM | > 100 µM | > 100 µM | > 100 µM
40 | CCN=c1scc(-c2ccccc2)n1/N=C/c1ccccn1 | 93.2 µM (inactive) | > 100 µM | > 100 µM | > 100 µM

Row | SMILES | IC50 | IC50 [1] | IC90 [2] | IC90 [3]
41 | CC(=O)c1ccc(-n2c(C)ccc2-c2ccccc2)cc1 | 20.2 µM | 61.3 µM | 88.3 µM | > 100 µM
42 | CCc1ccc2oc(-c3cc(N)cc(C)c3O)nc2c1 | 76.1 µM (inactive) | 93.2 µM | > 100 µM | > 100 µM
43 | COc1ccc2nc(SCc3cccc(C)c3)nc(C)c2c1 | > 100 µM (inactive) | > 100 µM | > 100 µM | > 100 µM
44 | CCC(C)NCCOCCOc1ccc(Cl)c2ccccc12 (configuration not stated) | 32 µM (inactive) | 38.3 µM | 53.3 µM | 50.7 µM
45 | CCOc1ccc(-c2nnc(SCC(=O)N3CCOCC3)o2)cc1 | > 100 µM (inactive) | > 100 µM | > 100 µM | > 100 µM
46 | COc1ccc(Br)cc1/C=N/NC(=O)CNC(=O)/C=C/c1ccccc1 | > 100 µM (inactive) | > 100 µM | > 100 µM | > 100 µM
47 | Cc1ccccc1OCC(=O)Nc1ccccc1N1CCOCC1 | 51.3 µM (inactive) | > 100 µM | > 100 µM | > 100 µM
48 | CCC(CC)C(=O)Nc1ccc(Sc2ccc([N+](=O)[O-])cc2)cc1 | > 100 µM (inactive) | > 100 µM | > 100 µM | > 100 µM
49 | Cc1c(NC(=O)c2noc3c2CCc2ccccc2-3)c(=O)n(-c2ccccc2)n1C | 28.3 µM | > 100 µM | > 100 µM | > 50 µM
50 | O=C(NCCC1=CCCCC1)NC1CCCCC1 | 17.8 µM | > 100 µM | > 100 µM | > 50 µM
51 | Cc1ccc(C(=O)c2oc3ccccc3c2NC(=O)c2cc(-c3cc(C)ccc3O)n[nH]2)cc1 | > 100 µM (inactive) | > 100 µM | > 100 µM | > 100 µM
52 | COc1ccc(OC)c2nc(-c3ccc4c(c3)OCO4)ccc12 | 17.7 µM | > 100 µM | > 100 µM | > 25 µM
53 | CCNCC(O)c1cccc(O)c1 (configuration not stated) | > 100 µM (inactive) | > 100 µM | > 100 µM | > 100 µM
54 | O=C(COC(=O)Cc1ccc(S(=O)(=O)N2CCCCC2)s1)Nc1ccc2c(c1)OCO2 | 76.2 µM (inactive) | 68.8 µM | > 100 µM | > 100 µM
55 | COc1cc(NC(=O)c2ccc(CNc3c(N4CCCC4)c(=O)c3=O)cc2)cc(OC)c1OC | 23.9 µM | > 100 µM | > 100 µM | > 100 µM
56 | Cc1ccc(Cn2c(NC(=O)c3ccco3)nc3ccccc32)cc1 | 2.62 µM | > 100 µM | > 100 µM | > 100 µM
57 | COC(=O)c1ccccc1NC(=O)CSCC(=O)Nc1ccc(F)cc1 | 39.7 µM (inactive) | 94.9 µM | > 100 µM | > 100 µM
58 | CCOC(=O)c1sc(Nc2nc3c(OC)cccc3s2)cc1C | 98.6 µM (inactive) | 89 µM | > 100 µM | > 100 µM
